Test results reported in patent US7396837B2, “Antitumoral analogs of lamellarins” (Pharma Mar, S.A.U., priority 2002, dated 2008).
“Also recorded” adds a separate entry of the source.

How the values were obtained:
H-MEC-1 = test: SRB colorimetric cell growth inhibition assay, H-MEC-1; format: cell-based; conditions: Homo sapiens, HMEC-1, H-MEC-1
How it was run: (§1)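 Sulforhodamine B colorimetric assay of cell growth and viability, mean ± SD of triplicate wells. Parameters derived: GI (growth inhibition), TGI (total growth inhibition, cytostatic) and LC (cell killing, cytotoxic).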

SKOV-3 = test: SRB colorimetric cell growth inhibition assay, SKOV-3; format: cell-based; conditions: Homo sapiens
How it was run: as §1

fertilised sea urchin = fertilised sea urchin assay; cited from earlier work
human topoisomerase I = target: T1, human topoisomerase I (Homo sapiens, UniProt P11387); test: Topoisomerase I cleavage of radiolabeled 117-bp DNA fragment; format: biochemical
T1 sequence (P11387 1-765): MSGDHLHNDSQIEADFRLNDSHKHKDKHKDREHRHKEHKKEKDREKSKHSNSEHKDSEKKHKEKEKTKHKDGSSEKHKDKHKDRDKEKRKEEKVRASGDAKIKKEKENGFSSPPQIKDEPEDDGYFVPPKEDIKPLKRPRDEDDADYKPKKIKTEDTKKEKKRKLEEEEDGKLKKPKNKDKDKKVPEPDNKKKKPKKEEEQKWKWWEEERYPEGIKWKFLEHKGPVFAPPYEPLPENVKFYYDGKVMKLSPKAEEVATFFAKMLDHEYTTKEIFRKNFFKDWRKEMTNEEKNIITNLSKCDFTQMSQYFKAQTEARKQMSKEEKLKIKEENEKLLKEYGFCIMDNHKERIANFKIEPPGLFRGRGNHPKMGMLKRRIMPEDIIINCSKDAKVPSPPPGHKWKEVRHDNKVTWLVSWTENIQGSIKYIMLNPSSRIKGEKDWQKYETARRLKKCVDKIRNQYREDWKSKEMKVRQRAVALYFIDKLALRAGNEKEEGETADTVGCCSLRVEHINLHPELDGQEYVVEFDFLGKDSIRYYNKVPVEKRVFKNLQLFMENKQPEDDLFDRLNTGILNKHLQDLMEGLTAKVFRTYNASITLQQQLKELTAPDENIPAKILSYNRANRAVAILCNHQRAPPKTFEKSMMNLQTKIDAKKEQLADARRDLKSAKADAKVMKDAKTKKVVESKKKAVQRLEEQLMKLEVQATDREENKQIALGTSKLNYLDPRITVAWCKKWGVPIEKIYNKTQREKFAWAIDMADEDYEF
From the text: Two assays, based on DNA relaxation and DNA cleavage (Bailly, C. DNA relaxation and cleavage assays to study topoisomerase I inhibitors. Methods Enzymol. 2001, 340, 610-623) were used evaluate the effects of the lamellarin analogs on the catalytic activity of human topoisomerase I.
A second assay, based on the cleavage of a radiolabeled DNA substrate by topoisomerase I, was used to confirm that the cationic lamellarin derivatives do effectively function as topoisomerase I poisons. A 117-bp DNA restriction fragment uniquely end-labeled at the 3′ end was subjected to cleavage by topoisomerase I in the presence of the different compounds and the resulting DNA cleavage products were resolved on sequencing-type polyacrylamide gels. The advantage of this assay is to detect the cleavage sites and to locate their positions with nucleotide resolution, providing thus information on the site selectivity of cleavage.

For `COc1cc(-c2c3c4cc(OC)c(O)cc4oc(=O)c3n3ccc4cc(O)c(OC)cc4c23)ccc1O` [Compound 3, lamellarin D, reference compound], which GI50 (H-MEC-1; GI=growth inhibition, read-out: GI50 H-MEC-1) is on record?
Its GI50 is 113 nM.

And the IC (TGI) (H-MEC-1; total growth inhibition (cytostatic effect), read-out: TGI H-MEC-1)?
The IC (TGI) was 3140 nM.

And the GI50 (SKOV-3; SK-OV-3, SKOV-3, GI=growth inhibition, read-out: GI50 SKOV-3)?
Its GI50 is 53.7 nM.

What about the IC (TGI) (SKOV-3; SK-OV-3, SKOV-3, total growth inhibition (cytostatic effect), read-out: TGI SKOV-3) of the same compound?
Its IC (TGI) is 240 nM.

And the “inhibition of cell division” value (fertilised sea urchin)?
Its value is “inhibition of cell division”.

And the “topoisomerase I-mediated DNA cleavage sites / cleavage profile” value (human topoisomerase I; 117-bp DNA restriction fragment 3' end-labeled, sequencing-type polyacrylamide gels, listed as LAM-D)?
Its value is “T^↓G or C^↓G dinucleotides; also recorded: additional cleavage site at C^↓G73”.

What about the “efficiency of topoisomerase I-mediated DNA cleavage at sites T↓G48 and T↓G81” value (human topoisomerase I; compared with CPT) of the same compound?
The value was “less efficient than CPT”.
